pEC50: −log10 of the molar value.
How the values were obtained:
[1] = target: GLP-1R (Homo sapiens (Human), UniProt P43220); experiment: GLP-1R activation: cAMP increase in CHO cells stably expressing GLP-1R; format: cell-based; conditions: cAMP increase, 10 point dose response, 30 minutes incubation at 37° C., read-out: EC50
In short: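 CHO cells stably expressing GLP-1R were incubated 1 h at 37 °C in medium with 1% BSA, then exposed to compound in a 10-point dose response for 30 min at 37 °C. cAMP rise was detected by HTRF (Gs Dynamic kit). EC50 came from a sigmoidal fit of response against log agonist concentration.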

[2] = Microsomal stability (liver microsomal assay, mixed cofactors); predicted hepatic clearance; format: in vitro ADME; conditions: liver microsomes 1.0 mg protein/mL (+UDPGA +NADPH), 1 μM analyte, 37° C.; scaled with human liver weight and hepatic blood flow 1.3 L/hr/kg
In short: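 Compound at 1 μM with human or rat pooled liver microsomes, alamethicin-treated, pH 7.4 phosphate, NADPH-regenerating plus UDPGA cofactors, 37° C, sampled 0–70 min. Parent/internal standard ratio by RapidFire QToF MS; half-life from initial log-linear decay, scaled to intrinsic and predicted hepatic clearance and hepatic extraction.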

Sequence of GLP-1R (P43220 24-463): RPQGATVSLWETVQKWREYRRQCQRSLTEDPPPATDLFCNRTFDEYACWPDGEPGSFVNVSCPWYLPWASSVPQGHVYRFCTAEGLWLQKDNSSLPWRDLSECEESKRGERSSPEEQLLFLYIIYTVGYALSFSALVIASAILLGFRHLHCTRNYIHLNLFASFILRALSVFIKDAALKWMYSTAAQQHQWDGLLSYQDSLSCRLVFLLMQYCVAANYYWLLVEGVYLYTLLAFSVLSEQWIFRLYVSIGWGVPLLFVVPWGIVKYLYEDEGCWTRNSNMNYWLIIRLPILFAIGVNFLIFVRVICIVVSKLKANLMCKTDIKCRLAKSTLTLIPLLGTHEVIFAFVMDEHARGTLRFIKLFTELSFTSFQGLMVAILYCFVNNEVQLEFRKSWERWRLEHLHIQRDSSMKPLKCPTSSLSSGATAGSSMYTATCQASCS

SMILES | pEC50 [1] | Predicted Hepatic Clearance (Pred. Cl.) [2]
CC1(c2ccc(Cl)cc2F)Oc2cccc(-c3cc(F)c(Cc4nc5ccc(C(=O)O)cc5n4C[C@@H]4CCO4)c(F)c3)c2O1 (stereo partly drawn) [Example 22, 2-(4-(2-(4-chloro-2-fluorophenyl)-2-methylbenzo[d][1, 3]dioxol-4-yl)-2,6-difluorobenzyl)-1-(((S)-oxetan-2-yl)methyl)-1H-benzo[d]imidazole-6-carboxylic acid] | 10.62 | <1.83 mL/min/kg
CC1(c2ccc(Cl)cc2F)Oc2cccc(-c3ccc(Cc4nc5ccc(C(=O)O)cc5n4C[C@@H]4CCO4)c(F)c3)c2O1 (stereo partly drawn) [Example 23, 2-(4-(2-(4-chloro-2-fluorophenyl)-2-methylbenzo[d][1, 3]dioxol-4-yl)-2-fluorobenzyl)-1-(((S)-oxetan-2-yl)methyl)-1H-benzo[d]imidazole-6-carboxylic acid] | 9.31 | 2.33 mL/min/kg
CC1(c2ccc(Cl)cn2)Oc2cccc(-c3cc(F)c(Cc4nc5ccc(C(=O)O)cc5n4CC4(CC#N)CC4)c(F)c3)c2O1 (centres unmarked) [Example 24, 2-(4-(2-(5-chloropyridin-2-yl)-2-methylbenzo[d][1, 3]dioxol-4-yl)-2,6-difluorobenzyl)-1-((1-(cyanomethyl)cyclo-propyl)methyl)-1H-benzo[d]imidazole 6-carboxylic acid] | 8.77 | 2.67 mL/min/kg
CC1(c2ccc(C#N)cc2F)Oc2cccc(-c3cc(F)c(Cc4nc5ccc(C(=O)O)cc5n4C[C@@H]4CCO4)cc3F)c2O1 (stereo partly drawn) [Example 25, 2-(4-(2-(4-cyano-2-fluorophenyl)-2-methylbenzo[d][1, 3]dioxol-4-yl)-2,5-difluorobenzyl)-1-(((S)-oxetan-2-yl)methyl)-1H-benzo[d]imidazole-6-carboxylic acid] | 9.52 | 4.33 mL/min/kg
CC1(c2ccc(Cl)cn2)Oc2cccc(-c3ccn(Cc4nc5ccc(C(=O)O)cc5n4C[C@@H]4CCO4)c(=O)c3)c2O1 (stereo partly drawn) [Example 26, 2-((4-(2-(5-chloropyridin-2-yl)-2-methylbenzo[d][1, 3]dioxol-4-yl)-2-oxopyridin-1(2H)-yl)methyl)-1-(((S)-oxetan-2-yl)methyl)-1H-benzo[d]imidazole-6-carboxylic acid] | 7.43 | <1.83 mL/min/kg
CC1(c2ccc(Cl)cn2)Oc2cccc(-c3cc(F)c(Cc4nc5ccc(C(=O)O)cc5n4C[C@@H]4CCO4)c(F)c3)c2O1 (stereo partly drawn) [Example 27, 2-(4-(2-(5-chloropyridin-2-yl)-2-methylbenzo[d][1, 3]dioxol-4-yl)-2,6-difluorobenzyl)-1-(((S)-oxetan-2-yl)methyl)-1H-benzo[d]imidazole-6-carboxylic acid] | 9.28 | 2.33 mL/min/kg
CC1(c2ccc(Cl)cc2F)Oc2cccc(-c3cc(F)c(Cc4nc5ccc(C(=O)O)cc5n4C[C@@H]4CCO4)cc3F)c2O1 (stereo partly drawn) [Example 28, 2-(4-(2-(4-chloro-2-fluorophenyl)-2-methylbenzo[d][1, 3]dioxol-4-yl)-2,5-difluorobenzyl)-1-(((S)-oxetan-2-yl)methyl)-1H-benzo[d]imidazole-6-carboxylic acid] | 10.47 | 3.83 mL/min/kg
CC1(c2ccc(Cl)cn2)Oc2cccc(-c3cc(F)c(Cc4nc5ccc(C(=O)O)cc5n4C[C@@H]4CCO4)cc3F)c2O1 (stereo partly drawn) [Example 29, 2-(4-(2-(5-chloropyridin-2-yl)-2-methylbenzo[d][1, 3]dioxol-4-yl)-2,5-difluorobenzyl)-1-(((S)-oxetan-2-yl)methyl)-1H-benzo[d]imidazole-6-carboxylic acid] | 10.12 | 4.67 mL/min/kg
CCC1(c2ccc(Cl)cc2F)Oc2cccc(-c3cc(F)c(Cc4nc5ccc(C(=O)O)cc5n4CCOC)c(F)c3)c2O1 (centres unmarked) [Example 53, 2-(4-(2-(4-chloro-2-fluorophenyl)-2-ethylbenzo[d][1,3]dioxol-4-yl)-2,6-difluorobenzyl)-1-(2-methoxyethyl)-1H-benzo[d]imidazole-6-carboxylic acid] | 5.89 | 13 mL/min/kg
COCCn1c(Cc2c(F)cc(-c3cccc4c3OC(C)(c3ccc(Cl)cc3OC)O4)cc2F)nc2ccc(C(=O)O)cc21 (centres unmarked) [Example 60, 2-(4-(2-(4-chloro-2-methoxyphenyl)-2-methylbenzo[d][1, 3]dioxol-4-yl)-2,6-difluorobenzyl)-1-(2-methoxyethyl)-1H-benzo[d]imidazole-6-carboxylic acid] | 8.42 | 3.5 mL/min/kg

Next, values leading:

pEC50 [1] | Predicted Hepatic Clearance (Pred. Cl.) [2] | SMILES
8.72 | 3.5 mL/min/kg | N#Cc1ccc(C2Oc3cccc(-c4cc(F)c(Cc5nc6ccc(C(=O)O)cc6n5C[C@@H]5CCO5)c(F)c4)c3O2)c(F)c1 (stereo partly drawn) [Example 30, (S)-2-(4-(2-(4-cyano-2-fluorophenyl)benzo [d][1,3]dioxol-4-yl)-2,6-difluorobenzyl)-1-(oxetan-2-ylmethyl)-1H-benzo[d]imidazole-6-carboxylic acid]
7.05 | 3.17 mL/min/kg | COCCn1c(Cc2cc(F)c(-c3cccc4c3OC(c3ccc(C#N)cc3F)O4)cc2F)nc2ccc(C(=O)O)cc21 (centres unmarked) [Example 31, 2-(4-(2-(4-cyano-2-fluorophenyl)benzo [d][1,3]dioxol-4-yl)-2,5-difluorobenzyl)-1-(2-methoxyethyl)-1H-benzo[d]imidazole-6-carboxylic acid]
5.72 | 6.33 mL/min/kg | COCCn1c(Cc2ccc(-c3cccc4c3OC(c3ccccc3)O4)cc2F)nc2ccc(C(=O)O)cc21 (centres unmarked) [Example 32, 2-(2-fluoro-4-(2-phenylbenzo[d][1, 3]dioxol-4-yl)benzyl)-1-(2-methoxyethyl)-1H-benzo[d]imidazole-6-carboxylic acid]
5.64 | 17.8 mL/min/kg | COCCn1c(Cc2ccc(-c3cccc4c3OC(C)(c3nc5ccccc5n3C)O4)cc2F)nc2ccc(C(=O)O)cc21 (centres unmarked) [Example 52, 2-[[2-fluoro-4-[2-methyl-2-(1-methylbenzimidazol-2-yl)-1,3-benzodioxol-4-yl]phenyl]methyl]-3-(2-methoxyethyl) benzimidazole-5-carboxylic acid]
6.20 | 3 mL/min/kg | COCCn1c(Cc2c(F)cc(-c3cccc4c3OC3c5ccc(Cl)cc5OC43)cc2F)nc2ccc(C(=O)O)cc21 (centres unmarked) [Example 54, 2-(4-(7-chloro-4b,9b-dihydrobenzofuro [3,2-b]benzofuran-1-yl)-2,6-difluorobenzyl)-1-(2-methoxyethyl)-1H-benzo[d]imidazole-6-carboxylic acid]
5.90 | 8.3 mL/min/kg | COCCn1c(Cc2c(F)cc(-c3cccc4c3OC3(CCCOc5cc(Cl)ccc53)O4)cc2F)nc2ccc(C(=O)O)cc21 (centres unmarked) [Example 55, 2-(4-(8-chloro-3,4-dihydro-2H-spiro[benzo[b]oxepine-5,2′-benzo[d][1,3]dioxol]-4′-yl)-2,6-difluorobenzyl)-1-(2-methoxyethyl)-1H-benzo[d]imidazole-6-carboxylic acid]
5.43 | 5.83 mL/min/kg | COCCn1c(Cc2c(F)cc(-c3cccc4c3OC3(CCCc5cc(Cl)ccc53)O4)cc2F)nc2ccc(C(=O)O)cc21 (centres unmarked) [Example 56, 2-(4-(6′-chloro-3′,4′-dihydro-2′H-spiro[benzo[d][1,3]dioxole-2,1′-naphthalen]-4-yl)-2,6-difluorobenzyl)-1-(2-methoxyethyl)-1H-benzo[d]imidazole-6-carboxylic acid]
6.46 | 9.17 mL/min/kg | COCCn1c(Cc2c(F)cc(-c3cccc4c3OC3(CCCCc5cc(Cl)ccc53)O4)cc2F)nc2ccc(C(=O)O)cc21 (centres unmarked) [Example 57, 2-(4-(2′-chloro-6′,7′,8′,9′-tetrahydrospiro[benzo [d][1,3]dioxole-2,5′-benzo[7]annulen]-4-yl)-2,6-difluorobenzyl)-1-(2-methoxyethyl)-1H-benzo[d]imidazole-6-carboxylic acid]
8.20 | 3.17 mL/min/kg | COCCn1c(Cc2c(F)cc(-c3cccc4c3OC(C)(c3ccc(C(F)(F)F)cc3F)O4)cc2F)nc2ccc(C(=O)O)cc21 (centres unmarked) [Example 58, 2-(2,6-difluoro-4-(2-(2-fluoro-4-(trifluoromethyl)phenyl)-2-methylbenzo[d][1, 3]dioxol-4-yl)benzyl)-1-(2-methoxyethyl)-1H-benzo[d]imidazole-6-carboxylic acid]
6.19 | 13 mL/min/kg | COCCn1c(Cc2csc(-c3cccc4c3OC(C)(c3ccc(Cl)cc3F)O4)c2)nc2ccc(C(=O)O)cc21 (centres unmarked) [Example 61, 2-((5-(2-(4-chloro-2-fluorophenyl)-2-methylbenzo[d][1, 3]dioxol-4-yl)thiophen-3-yl)methyl)-1-(2-methoxyethyl)-1H-benzo[d]imidazole-6-carboxylic acid]
8.60 | 8.83 mL/min/kg | COCCn1c(Cc2cc(F)c(-c3cccc4c3OC(C)(c3ccc(C#N)cc3F)O4)cc2F)nc2c(F)cc(C(=O)O)cc21 (centres unmarked) [Example 62, 2-(4-(2-(4-cyano-2-fluorophenyl)-2-methylbenzo[d][1, 3]dioxol-4-yl)-2,5-difluorobenzyl)-4-fluoro-1-(2-methoxyethyl)-1H-benzo[d]imidazole-6-carboxylic acid]
9.21 | 3.5 mL/min/kg | CC1(c2ccc(C(F)(F)F)cc2)Oc2cccc(-c3cc(F)c(Cc4nc5ccc(C(=O)O)cc5n4C[C@@H]4CCO4)cc3F)c2O1 (stereo partly drawn) [Example 63, 2-(2,5-difluoro-4-(2-methyl-2-(4-(trifluoromethyl)phenyl)benzo[d][1, 3]dioxol-4-yl)benzyl)-1-(((S)-oxetan-2-yl)methyl)-1H-benzo[d]imidazole-6-carboxylic acid]
